Reference: patent US6841167B1, “β-carboline pharmaceutical compositions” (Lilly Icos LLC., priority 1999, dated 2005)

Legend:
[1] = physical stability evaluation of solutions (microscope, drug crystals); assay type: physicochemical; conditions: PEG 400, room temperature and 4° C.
Procedure: The solutions then were allowed to cool to room temperature (RT). A portion of each solution was mixed with water (8 mg water per 100 mg solution) to mimic the water migration and retention processes occurring in a soft capsule. The solutions (with and without water) were stored at RT (room temperature) and at 4° C. for physical stability evaluation.

[2] = bioavailability of Compound A; conditions: in vivo

drug concentration at which PEG 400 solution formulation is physically stable with respect to drug crystallization [1]: ≤ 2.8%
bioavailability [2]: low and inconsistent bioavailability
SMILES: CN1CC(=O)N2[C@H](c3ccc4c(c3)OCO4)c3[nH]c4ccccc4c3C[C@@H]2C1=O (relative stereo) [Compound A, (6R-trans)-6-(1,3-benzodioxol-5-yl)-2,3,6,7,12,12a-hexahydro-2-methylpyrazino-[1′, 2′:1, ]pyrido[3,4-b]indole-1,4-dione]
